The first data set relates to Mycosphaerella graminicola; Anamorph: Septoria tritici; Bayer Code SEPTTR. The experiment in a line: Evaluation of fungicidal activity: leaf blotch of wheat (SEPTTR), wheat plants variety Yuma. The class given is in vivo. The conditions noted are these: Zymoseptoria tritici, 24 h, read-out: SEPTTR 100 PPM 1DP (% Disease Control rating). The protocol: Evaluation of Fungicidal Activity: Leaf Blotch of Wheat (Mycosphaerella graminicola; Anamorph: Septoria tritici; Bayer Code […]) Wheat plants (variety Yuma) were grown from seed in a greenhouse in 50% mineral soil/50% soil-less Metro mix until the first leaf was fully emerged, with 7-10 seedlings per pot. These plants were inoculated with an aqueous spore suspension of Septoria tritici either prior to or after fungicide treatments. After inoculation the plants were kept in 100% relative humidity (one day in a dark dew chamber followed by two to three days in a lighted dew chamber) to permit spores to germinate and infect the leaf. The plants were then transferred to a greenhouse for disease to develop. The following table presents the activity of typical compounds of the present disclosure when evaluated in these experiments. The effectiveness of the test compounds in controlling disease was determined by assessing the severity of disease on treated plants, then converting the severity to percent control based on the level of disease on untreated, inoculated plants. • In each case of Table II the rating scale is as follows: […]
As for `Nc1nc(=O)n(C(=O)Nc2ccccc2)cc1F` [Compound 6, 4-amino-5-fluoro-2-oxo-N-phenylpyrimidine-1(2H)-carboxamide], the pest or weed control at 100 ppm fell in the range of 76 to 100%.

As for `O=C(Nc1ccccc1)n1cc(F)c(NCc2ccccc2F)nc1=O` [Compound 28, 5-fluoro-4-(2-fluorobenzylamino)-2-oxo-N-phenylpyrimidine-1(2H)-carboxamide], the pest or weed control at 100 ppm was 0 to 25%.

The same data set, now with this note: Zymoseptoria tritici, 24 h; One-Day Protectant (1DP), 100 ppm, wheat plants, percent control vs untreated inoculated plants; read-out: SEPTTR 100 PPM 1DP (% Disease Control rating).
Regarding `CCCNC(=O)n1cc(F)c(/N=C/N(C)C)nc1=O` [Compound 1, 4-(dimethylamino-methyleneamino)-5-fluoro-2-oxo-2H-pyrimidine-1-carboxylic acid propylamide], the pest or weed control at 100 ppm lay in the range of 76 to 100%.

In the case of `CCOC(=O)CCNC(=O)n1cc(F)c(/N=C/N(C)C)nc1=O` [Compound 2], the pest or weed control at 100 ppm fell in the range of 76 to 100%.

Consider `CN(C)/C=N/c1nc(=O)n(C(=O)NCc2ccccc2)cc1F` [Compound 3, (E)-N-benzyl-4-((dimethylamino)methyleneamino)-5-fluoro-2-oxopyrimidine-1(2H)-carboxamide], for which the pest or weed control at 100 ppm fell in the range of 76 to 100%.

Regarding `CCCCCNC(=O)n1cc(F)c(N)nc1=O` [Compound 4, 4-amino-5-fluoro-2-oxo-N-pentylpyrimidine-1(2H)-carboxamide], the pest or weed control at 100 ppm is 76 to 100%.

In the case of `Nc1nc(=O)n(C(=O)NC2CCCC2)cc1F` [Compound 5, 4-amino-N-cyclopentyl-5-fluoro-2-oxopyrimidine-1(2H)-carboxamide], the pest or weed control at 100 ppm was 76 to 100%.

As for `COc1ccccc1NC(=O)n1cc(F)c(N)nc1=O` [Compound 7], the pest or weed control at 100 ppm was in the range of 76 to 100%.

Consider `Nc1nc(=O)n(C(=O)Nc2ccccc2Cl)cc1F` [Compound 8], for which the pest or weed control at 100 ppm fell in the range of 76 to 100%.

As to `Cc1ccccc1NC(=O)n1cc(F)c(N)nc1=O` [Compound 9], the pest or weed control at 100 ppm is 76 to 100%.

Take `COc1ccc(NC(=O)n2cc(F)c(N)nc2=O)cc1` [Compound 10]: the pest or weed control at 100 ppm lay in the range of 76 to 100%.

As for `Nc1nc(=O)n(C(=O)Nc2ccc(F)c(Cl)c2)cc1F` [Compound 11], the pest or weed control at 100 ppm was in the range of 76 to 100%.

Consider `Nc1nc(=O)n(C(=O)Nc2ccc(Cl)cc2)cc1F` [Compound 12], for which the pest or weed control at 100 ppm lay in the range of 76 to 100%.

On to `N#Cc1ccc(NC(=O)n2cc(F)c(N)nc2=O)cc1` [Compound 13], for which the pest or weed control at 100 ppm lay within 76 to 100%.

Regarding `Nc1nc(=O)n(C(=O)Nc2cccc(Cl)c2)cc1F` [Compound 14, 4-amino-N-(3-chlorophenyl)-5-fluoro-2-oxopyrimidine-1(2H)-carboxamide], the pest or weed control at 100 ppm lay in the range of 76 to 100%.

In the case of `Cc1ccc(NC(=O)n2cc(F)c(N)nc2=O)cc1` [Compound 15], the pest or weed control at 100 ppm is 76 to 100%.

As to `COc1cccc(NC(=O)n2cc(F)c(N)nc2=O)c1` [Compound 16], the pest or weed control at 100 ppm was 76 to 100%.

As to `Nc1nc(=O)n(C(=O)Nc2ccc3ccccc3c2)cc1F` [Compound 17], the pest or weed control at 100 ppm was 76 to 100%.

Still in this data set, the particulars now being: Zymoseptoria tritici, 72 h, read-out: SEPTTR 100 PPM 3DC (% Disease Control rating).
As to `Nc1nc(=O)n(C(=O)Nc2ccccc2)cc1F` [Compound 6, 4-amino-5-fluoro-2-oxo-N-phenylpyrimidine-1(2H)-carboxamide], the pest or weed control at 100 ppm was in the range of 76 to 100%.

For the compound `O=C(Nc1ccccc1)n1cc(F)c(NCc2ccccc2F)nc1=O` [Compound 28, 5-fluoro-4-(2-fluorobenzylamino)-2-oxo-N-phenylpyrimidine-1(2H)-carboxamide], the pest or weed control at 100 ppm was in the range of 26 to 50%.

The same data set, now with this note: Zymoseptoria tritici, 72 h; Three-Day Curative (3DC), 100 ppm, wheat plants, percent control vs untreated inoculated plants; read-out: SEPTTR 100 PPM 3DC (% Disease Control rating).
`CCCNC(=O)n1cc(F)c(/N=C/N(C)C)nc1=O` [Compound 1, 4-(dimethylamino-methyleneamino)-5-fluoro-2-oxo-2H-pyrimidine-1-carboxylic acid propylamide]: the pest or weed control at 100 ppm was in the range of 76 to 100%.

On to `CCOC(=O)CCNC(=O)n1cc(F)c(/N=C/N(C)C)nc1=O` [Compound 2], for which the pest or weed control at 100 ppm is 76 to 100%.

Turning to `CN(C)/C=N/c1nc(=O)n(C(=O)NCc2ccccc2)cc1F` [Compound 3, (E)-N-benzyl-4-((dimethylamino)methyleneamino)-5-fluoro-2-oxopyrimidine-1(2H)-carboxamide], the pest or weed control at 100 ppm lay within 76 to 100%.

For `CCCCCNC(=O)n1cc(F)c(N)nc1=O` [Compound 4, 4-amino-5-fluoro-2-oxo-N-pentylpyrimidine-1(2H)-carboxamide], the pest or weed control at 100 ppm was in the range of 76 to 100%.

As to `Nc1nc(=O)n(C(=O)NC2CCCC2)cc1F` [Compound 5, 4-amino-N-cyclopentyl-5-fluoro-2-oxopyrimidine-1(2H)-carboxamide], the pest or weed control at 100 ppm is 76 to 100%.

Regarding `COc1ccccc1NC(=O)n1cc(F)c(N)nc1=O` [Compound 7], the pest or weed control at 100 ppm fell in the range of 76 to 100%.

Regarding `Nc1nc(=O)n(C(=O)Nc2ccccc2Cl)cc1F` [Compound 8], the pest or weed control at 100 ppm fell in the range of 76 to 100%.

On to `Cc1ccccc1NC(=O)n1cc(F)c(N)nc1=O` [Compound 9], for which the pest or weed control at 100 ppm fell in the range of 76 to 100%.

As to `COc1ccc(NC(=O)n2cc(F)c(N)nc2=O)cc1` [Compound 10], the pest or weed control at 100 ppm lay in the range of 76 to 100%.

On to `Nc1nc(=O)n(C(=O)Nc2ccc(F)c(Cl)c2)cc1F` [Compound 11], for which the pest or weed control at 100 ppm lay within 26 to 50%.

For the compound `Nc1nc(=O)n(C(=O)Nc2ccc(Cl)cc2)cc1F` [Compound 12], the pest or weed control at 100 ppm lay in the range of 76 to 100%.

Turning to `N#Cc1ccc(NC(=O)n2cc(F)c(N)nc2=O)cc1` [Compound 13], the pest or weed control at 100 ppm fell in the range of 51 to 75%.

As for `Nc1nc(=O)n(C(=O)Nc2cccc(Cl)c2)cc1F` [Compound 14, 4-amino-N-(3-chlorophenyl)-5-fluoro-2-oxopyrimidine-1(2H)-carboxamide], the pest or weed control at 100 ppm is 76 to 100%.

For the compound `Cc1ccc(NC(=O)n2cc(F)c(N)nc2=O)cc1` [Compound 15], the pest or weed control at 100 ppm is 76 to 100%.

For `COc1cccc(NC(=O)n2cc(F)c(N)nc2=O)c1` [Compound 16], the pest or weed control at 100 ppm lay in the range of 76 to 100%.

For the compound `Nc1nc(=O)n(C(=O)Nc2ccc3ccccc3c2)cc1F` [Compound 17], the pest or weed control at 100 ppm lay in the range of 76 to 100%.

System in a further data set: not given
Test: not given
Settings: not given
`CCCNC(=O)n1cc(F)c(/N=C/N(C)C)nc1=O` [Compound 1, 4-(dimethylamino-methyleneamino)-5-fluoro-2-oxo-2H-pyrimidine-1-carboxylic acid propylamide] displayed a melting point of 266 to 268 °C.

On to `CCOC(=O)CCNC(=O)n1cc(F)c(/N=C/N(C)C)nc1=O` [Compound 2], for which the melting point was in the range of 232 to 236 °C.

For `CN(C)/C=N/c1nc(=O)n(C(=O)NCc2ccccc2)cc1F` [Compound 3, (E)-N-benzyl-4-((dimethylamino)methyleneamino)-5-fluoro-2-oxopyrimidine-1(2H)-carboxamide], the melting point was in the range of 147 to 150 °C.

Regarding `CCCCCNC(=O)n1cc(F)c(N)nc1=O` [Compound 4, 4-amino-5-fluoro-2-oxo-N-pentylpyrimidine-1(2H)-carboxamide], the melting point fell in the range of 289 to 292 °C.

On to `Nc1nc(=O)n(C(=O)NC2CCCC2)cc1F` [Compound 5, 4-amino-N-cyclopentyl-5-fluoro-2-oxopyrimidine-1(2H)-carboxamide], for which the melting point fell in the range of 294 to 297 °C.

As to `Nc1nc(=O)n(C(=O)Nc2ccccc2)cc1F` [Compound 6, 4-amino-5-fluoro-2-oxo-N-phenylpyrimidine-1(2H)-carboxamide], the melting point was 275 to 277 °C (dec.).

`COc1ccccc1NC(=O)n1cc(F)c(N)nc1=O` [Compound 7]: the melting point is 277 to 280 °C (dec.).

`Nc1nc(=O)n(C(=O)Nc2ccccc2Cl)cc1F` [Compound 8] came in with a melting point of 258 to 261 °C.

For `Cc1ccccc1NC(=O)n1cc(F)c(N)nc1=O` [Compound 9], the melting point was 277 to 280 °C (dec.).

For the compound `COc1ccc(NC(=O)n2cc(F)c(N)nc2=O)cc1` [Compound 10], the melting point was 252 to 255 °C.

In the case of `Nc1nc(=O)n(C(=O)Nc2ccc(F)c(Cl)c2)cc1F` [Compound 11], the melting point lay within 251 to 254 °C.

The compound `Nc1nc(=O)n(C(=O)Nc2ccc(Cl)cc2)cc1F` [Compound 12] returned a melting point of 261 to 264 °C.

Regarding `N#Cc1ccc(NC(=O)n2cc(F)c(N)nc2=O)cc1` [Compound 13], the melting point lay within 254 to 257 °C.

Regarding `Nc1nc(=O)n(C(=O)Nc2cccc(Cl)c2)cc1F` [Compound 14, 4-amino-N-(3-chlorophenyl)-5-fluoro-2-oxopyrimidine-1(2H)-carboxamide], the melting point fell in the range of 250 to 252 °C.

In the case of `Cc1ccc(NC(=O)n2cc(F)c(N)nc2=O)cc1` [Compound 15], the melting point is 257 to 260 °C.

Take `COc1cccc(NC(=O)n2cc(F)c(N)nc2=O)c1` [Compound 16]: the melting point was in the range of 242 to 244 °C.

As to `Nc1nc(=O)n(C(=O)Nc2ccc3ccccc3c2)cc1F` [Compound 17], the melting point was 273 to 275 °C.

Regarding `O=C(Nc1ccccc1)n1cc(F)c(NCc2ccccc2F)nc1=O` [Compound 28, 5-fluoro-4-(2-fluorobenzylamino)-2-oxo-N-phenylpyrimidine-1(2H)-carboxamide], the melting point lay within 154 to 157 °C.

The term melting point denotes the temperature of the solid-liquid transition.

These data come from patent US9000002B2, “N1-substituted-5-fluoro-2-oxopyrimidinone-1(2H)-carboxamide derivatives” (Dow Agrosciences LLC, priority 2009, dated 2015).
